# Data published in patent publication US11534493B2, “Pharmaceutical compositions of roflumilast in aqueous blends of water-miscible, pharmaceutically acceptable solvents” (ARCUTIS, INC., priority 2017, dated 2022).
# Key:
# [1] = aqueous solubility of roflumilast reported in WO95/01338; type: physicochemical; settings: cited 0.53 mg/l (21° C.) value converted to w/w %
# Excerpt: Roflumilast and its synthesis were described in U.S. Pat. No. 5,712,298 (the “'298 patent”), incorporated herein by reference.* It has long been recognized that pharmaceutical compounds having phosphodiesterase (PDE)-inhibiting properties, such as roflumilast, are useful for treating psoriasis and atopic dermatitis ('298 patent, col 11 lines 52-61) and other chronic inflammatory and allergen-induced dermatoses. For treatment of such dermatoses, roflumilast emulsions, suspensions, gels or solutions for topical application have been described ('298 patent, col 12, lines 37-64). […] This low aqueous solubility has been problematic for the development of parenteral preparations and topical emulsions, suspensions, gels or solutions containing water. In U.S. Pat. No. 9,205,044 (incorporated herein by reference), the poor water solubility of roflumilast was overcome by using an alkoxylated fat, specifically polyoxyethylated 12-hydroxystearic acid, as a co-solvent for parenteral administration.
# [2] = Protocol: Roflumilast (Batch A14367P from Interquim S.A.), 0.0061 grams, was weighed into a liquid scintillation vial. PG (propylene glycol, Spectrum Chemical lot IEC0004) was added dropwise with mixing to the vial containing roflumilast. After mixing each addition of PG, the tightly capped vial was returned to a water bath set at 25° C.
# 2.3200 grams of an equimolar blend of PG (Spectrum Chemical lot IEC0004) and distilled water was prepared and added to a scintillation vial containing 0.0012 grams of roflumilast (Batch A14367P from Interquim S.A.). […] An equimolar blend is 80.7% PG and 19.3% water on a weight/weight percent basis.
# [3] = remark: listed apart in the source
# Protocol: Roflumilast (Batch A14367P from Interquim S.A.), 0.0205 grams, was weighed into a liquid scintillation vial. DEGEE (Transcutol P, lot 146063, Gattefosse) was added dropwise with mixing to the vial containing roflumilast. After mixing each addition of DEGEE, the tightly capped vial was returned to a water bath set at 25° C.
# 0.0111 grams of roflumilast (Batch A14367P from Interquim S.A.) was weighed into a liquid scintillation vial. An equimolar blend of DEGEE (Transcutol P, lot 146063, Gattefosse) and distilled water was prepared and added dropwise with mixing to the vial containing roflumilast. An equimolar blend is 88.3% DEGEE and 11.7% water on a weight/weight percent basis. After mixing each addition of equimolar DEGEE:Water, the tightly capped vial was returned to a water bath set at 25° C.
smiles,measurement,setting,value
"O=C(Nc1c(Cl)cncc1Cl)c1ccc(OC(F)F)c(OCC2CC2)c1 [roflumilast, N-(3,5-dichloropyrid-4-yl)-3-cyclopropylmethoxy-4-difluoromethoxybenzamid-e]",saturation solubility of roflumilast in water,[1],0.000053 w/w %
same,calculated ideal solubility in equimolar PG:Water,[2],0.0040 w/w %
same,observed saturation solubility greater than calculated ideal solubility in equimolar PG:Water,[2],15 fold
same,observed saturation solubility in PG,[2],0.3 w/w %
same,observed saturation solubility in equimolar PG:Water,[2],0.06 w/w %
same,calculated ideal solubility in equimolar DEGEE:Water,[3],0.019 w/w %
same,observed saturation solubility greater than calculated ideal solubility in equimolar DEGEE:Water,[3],232 fold
same,observed saturation solubility in DEGEE,[3],7.1 w/w %
same,observed saturation solubility in equimolar DEGEE:Water,[3],4.4 w/w %
